Test results from ChEMBL document CHEMBL5365532, “Discovery of Triazinone Derivatives as Novel, Specific, and Direct NLRP3 Inflammasome Inhibitors for the Treatment of DSS-Induced Ulcerative Colitis” (J Med Chem, 2023).
Active and inactive are the calls of the source. No cut-off for these calls is given here.

Experiments:
THP-1 [1] = test: Effect on NLRP3 protein expression in PMA-differentiated human THP-1 cells at 0.2 to 0.8 uM pretreated with compound for 40 mins followed by LPS challenge for 3 hrs by western blot analysis; format: functional, cell-based; conditions: dose 0.2-0.8 µM, time 220.0 min
[2] = target: NACHT, LRR and PYD domains-containing protein 3 (Mus musculus) (UniProt Q8R4B8); test: Inhibition of NLRP3 inflammasome in C57BL/6 mouse BMDM cells assessed as inhibition of LPS/ATP-induced IL-1 beta secretion at 0.2 to 0.8 uM pretreated with LPS for 3 hrs followed by incubation with compound for 40 mins and later stimulated with ATP for 1 hr by ELISA; format: cell-based; conditions: dose 0.2-0.8 µM, time 100.0 min
[3] = target: NACHT, LRR and PYD domains-containing protein 3 (Mus musculus) (UniProt Q8R4B8); test: Inhibition of NLRP3 inflammasome in C57BL/6 mouse BMDM cells assessed as inhibition of LPS/alum-induced IL-1 beta secretion at 0.2 to 0.8 uM pretreated with LPS for 3 hrs followed by incubation with compound for 40 mins and later stimulated with alum for 4 hrs by ELISA; format: cell-based; conditions: dose 0.2-0.8 µM, time 280.0 min
[4] = target: NLR family CARD domain-containing protein 4 (Mus musculus) (UniProt Q3UP24); test: Inhibition of NLRC4 inflammasome in C57BL/6 mouse BMDM cells assessed as inhibition of LPS/flagellin-induced IL-1 beta secretion at 0.2 to 0.8 uM pretreated with LPS for 3 hrs followed by incubation with compound for 40 mins and later stimulated with flagellin for 6 hrs by ELISA; format: cell-based; conditions: dose 0.2-0.8 µM, time 400.0 min
THP-1 [5] = test: Effect on mitochondrial ROS production in PMA-differentiated human THP-1 cells at 0.2 to 45 uM pretreated with LPS for 3 hrs followed by incubation with compound for 40 mins and later stimulated with nigericin for 35 mins by MitoSOX staining based immunofluorescence analysis; format: functional, cell-based; conditions: dose 0.2-45 µM, time 75.0 min
[6] = AUC (0 to t) in BALB/c mouse at 10 mg/kg, po; format: ADME, organism-based; parameters: dose 10 mg/kg, route po; conditions: in vivo
[7] = Cmax in BALB/c mouse at 10 mg/kg, po; format: ADME, organism-based; parameters: dose 10 mg/kg, route po; conditions: in vivo
[8] = Oral bioavailability in BALB/c mouse at 10 mg/kg; format: ADME, organism-based; conditions: in vivo
[9] = AUC (0 to t) in BALB/c mouse at 10 mg/kg, iv; format: ADME, organism-based; parameters: dose 10 mg/kg, route iv; conditions: in vivo
[10] = Tmax in BALB/c mouse at 10 mg/kg, iv; format: ADME, organism-based; conditions: in vivo
[11] = Cmax in BALB/c mouse at 10 mg/kg, iv; format: ADME, organism-based; parameters: dose 10 mg/kg, route iv; conditions: in vivo
Mus musculus [12] = test: Antiinflammatory activity against DSS-induced ulcerative colitis C57BL/6 mouse model assessed as decrease in disease activity index at 20 to 30 mg/kg, ip fed with DSS for 6 days followed by administration with compound for 5 days; format: functional, organism-based; conditions: dose 20-30 mg/kg, time 5.0 day
Mus musculus [13] = test: Antiinflammatory activity against DSS-induced ulcerative colitis C57BL/6 mouse model assessed as decrease in colon length shortening at 10 to 30 mg/kg, ip fed with DSS for 6 days followed by administration with compound for 5 days and measured on day 11; format: functional, organism-based; conditions: dose 10-30 mg/kg, time 5.0 day
Mus musculus [14] = test: Antiinflammatory activity against DSS-induced ulcerative colitis C57BL/6 mouse model assessed as decrease in NLRP3 protein expression in colon at 30 mg/kg, ip fed with DSS for 6 days followed by administration with compound for 5 days and measured on day 11 by western blot analysis; format: functional, organism-based; conditions: time 5.0 day
[15] = target: NACHT, LRR and PYD domains-containing protein 3 (Mus musculus) (UniProt Q8R4B8); test: Inhibition of NLRP3 inflammasome in C57BL/6 mouse BMDM cells assessed as inhibition of IL-1 beta secretion at 0.2 to 0.8 uM pretreated with Pam3CSK4 for 3 hrs followed by incubation with compound for 40 mins and later stimulated with cytosolic LPS for 16 hrs by ELISA; format: cell-based; conditions: dose 0.2-0.8 µM, time 1000.0 min

Sequence of NACHT, LRR and PYD domains-containing protein 3 (Mus musculus) (Q8R4B8 whole entry, the tested form may be a part): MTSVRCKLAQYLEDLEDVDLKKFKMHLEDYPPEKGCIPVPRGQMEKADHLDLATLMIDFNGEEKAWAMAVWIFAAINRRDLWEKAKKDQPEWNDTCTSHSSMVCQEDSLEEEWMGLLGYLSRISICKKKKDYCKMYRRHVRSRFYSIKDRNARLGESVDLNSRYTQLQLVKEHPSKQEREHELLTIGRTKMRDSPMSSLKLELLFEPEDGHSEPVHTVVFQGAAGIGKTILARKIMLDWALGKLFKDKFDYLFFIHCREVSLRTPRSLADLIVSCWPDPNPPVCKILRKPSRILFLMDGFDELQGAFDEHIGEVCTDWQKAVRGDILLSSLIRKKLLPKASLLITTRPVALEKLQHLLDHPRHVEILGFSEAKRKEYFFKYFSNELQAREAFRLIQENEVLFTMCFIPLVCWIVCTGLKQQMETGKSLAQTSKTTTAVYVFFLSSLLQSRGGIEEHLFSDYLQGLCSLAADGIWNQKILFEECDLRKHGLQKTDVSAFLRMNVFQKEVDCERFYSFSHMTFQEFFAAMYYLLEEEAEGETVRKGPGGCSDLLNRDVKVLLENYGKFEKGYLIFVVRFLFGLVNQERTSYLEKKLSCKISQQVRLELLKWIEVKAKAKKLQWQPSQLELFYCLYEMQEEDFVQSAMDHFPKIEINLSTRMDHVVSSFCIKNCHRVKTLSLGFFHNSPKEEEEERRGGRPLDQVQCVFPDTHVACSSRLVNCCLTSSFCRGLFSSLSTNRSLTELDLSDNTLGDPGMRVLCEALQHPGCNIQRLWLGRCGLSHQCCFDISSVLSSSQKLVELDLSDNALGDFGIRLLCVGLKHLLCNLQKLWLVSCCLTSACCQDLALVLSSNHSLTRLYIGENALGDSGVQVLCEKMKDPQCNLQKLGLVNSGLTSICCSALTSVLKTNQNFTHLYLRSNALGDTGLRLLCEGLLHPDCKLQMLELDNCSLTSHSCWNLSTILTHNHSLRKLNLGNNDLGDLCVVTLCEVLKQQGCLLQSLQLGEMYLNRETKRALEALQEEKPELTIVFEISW
Sequence of NLR family CARD domain-containing protein 4 (Mus musculus) (Q3UP24 whole entry, the tested form may be a part): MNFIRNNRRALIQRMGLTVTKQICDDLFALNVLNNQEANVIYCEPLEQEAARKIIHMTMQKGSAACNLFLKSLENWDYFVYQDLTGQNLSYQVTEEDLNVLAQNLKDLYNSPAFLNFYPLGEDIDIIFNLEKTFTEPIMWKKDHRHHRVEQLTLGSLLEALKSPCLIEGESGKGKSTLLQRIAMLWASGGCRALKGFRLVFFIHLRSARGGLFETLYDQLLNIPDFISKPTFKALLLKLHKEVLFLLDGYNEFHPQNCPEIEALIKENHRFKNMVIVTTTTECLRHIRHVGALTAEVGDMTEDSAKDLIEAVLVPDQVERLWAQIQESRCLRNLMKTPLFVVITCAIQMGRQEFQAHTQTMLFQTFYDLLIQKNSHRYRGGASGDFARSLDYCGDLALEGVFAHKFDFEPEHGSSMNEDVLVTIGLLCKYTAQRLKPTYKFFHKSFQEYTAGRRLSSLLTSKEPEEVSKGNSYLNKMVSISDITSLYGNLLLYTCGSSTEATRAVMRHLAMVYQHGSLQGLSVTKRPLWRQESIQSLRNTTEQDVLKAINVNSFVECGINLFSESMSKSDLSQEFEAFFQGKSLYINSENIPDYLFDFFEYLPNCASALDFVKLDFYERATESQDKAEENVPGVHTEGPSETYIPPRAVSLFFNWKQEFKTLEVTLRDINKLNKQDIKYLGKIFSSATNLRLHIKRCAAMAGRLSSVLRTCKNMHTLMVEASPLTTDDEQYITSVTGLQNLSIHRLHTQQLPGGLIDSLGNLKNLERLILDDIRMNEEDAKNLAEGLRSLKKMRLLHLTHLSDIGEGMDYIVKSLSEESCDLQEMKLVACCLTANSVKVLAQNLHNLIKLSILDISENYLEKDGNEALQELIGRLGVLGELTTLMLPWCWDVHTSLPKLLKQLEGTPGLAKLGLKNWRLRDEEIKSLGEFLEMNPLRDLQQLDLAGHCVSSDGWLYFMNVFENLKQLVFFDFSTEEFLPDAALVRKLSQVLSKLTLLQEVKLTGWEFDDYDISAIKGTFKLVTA

inhibition [2]: Active | inhibition [3]: Active | inhibition [4]: inactive | AUC(0-t) [6]: 1170 ng·h/mL | Cmax [7]: 437 ng/mL | bioavailability [8]: 22.5% | AUC(0-t) [9]: 5210 ng·h/mL | Tmax [10]: 4.8 min | Cmax [11]: 3890 ng/mL | inhibition [15]: Active
Compound: CC(C)c1nn(Cc2nnc(-c3ccc(C(F)(F)F)nc3Cl)o2)c(=O)c2cc3sc(Cl)cc3n12
Activity (THP-1 [1]): inactive | Activity (THP-1 [5]): inactive | Activity (Mus musculus [12]): Active | Activity (Mus musculus [13]): Active | Activity (Mus musculus [14]): Active
